Common to all, as to test: NCI-60 cell line screen, 48 h
In test [1] the test system is HT29 colon.
Test [2] relates to SF-539 CNS.
Test [3] concerns RPMI-8226 leukemia.
Test [4] has as its system NCI-H23 lung.
Test [5] relates to IGROV1 ovarian.
Test [6] has as its system UO-31 renal.
For test [7], the system named is NCI-H226 lung.
Test [8] has as its system SR leukemia.

From PubChem BioAssay (NCI) come the findings set out here.

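All cell lines were grown in 96-well plates and treated with compound for 48 hours. The concentration for 50% growth inhibition is given as GI50. Definition used: TGI = concentration required for complete inhibition of growth.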

Consider `CC(C)c1ccc(C(c2ccc(OCC(=O)O)cc2)c2ccc(C(C)C)cc(=O)c2O)c(O)c(=O)c1`, for which the TGI is more than 100 µM in test [1]; 31.3 µM in test [2]; 47 µM in test [3]; 20.4 µM in test [4]; 21 µM in test [5].
With `CCCCOC(=O)NC(=O)c1cn(C2CCCCC2)c(=O)[nH]c1=O`, the TGI in test [6] was 46.2 µM; in test [1], more than 100 µM; in test [7], 46.3 µM; in test [2] it was 37.9 µM; in test [3] it was more than 100 µM; in test [4], more than 100 µM. The compound also returned a TGI in test [5] of more than 100 µM.
For the compound `CC(=O)O.[Au].c1ccc([PH+](c2ccccc2)c2ccccc2)cc1`, the GI50 in test [6] was 11.1 µM; in test [1], 11.5 µM; in test [7] it was 6.59 µM; in test [2] it was 8.6 µM; in test [3], 1.32 µM; in test [4], 2.36 µM. In addition, the GI50 in test [5] is 2.24 µM. Moreover, the TGI in test [6] came out at 24.4 µM; in test [1], 32.5 µM; in test [7], 19.1 µM; in test [2], 23.2 µM; in test [3], 4.46 µM; in test [4], 6.89 µM. The compound further yielded a TGI in test [5] of 6.95 µM.
Take `O=C(Nc1ccc(Cl)cc1Cl)C(=O)C(C(=O)c1ccncc1)C1OC(=O)c2ccccc21` (stereo not drawn): the TGI in test [6], in test [1], in test [7], in test [2], in test [3] and in test [8] was more than 100 µM in each case. The TGI in test [4] and in test [5] was more than 100 µM each time.
As to `CC(C)c1cc2c(O)c(c1)Cc1cc(C(C)C)cc(c1O)Cc1cc(C(C)C)cc(c1O)Cc1cc(C(C)C)cc(c1O)C2`, the TGI in test [6], in test [1], in test [7], in test [2], in test [3] and in test [8] was more than 100 µM each time. The TGI in test [4] and in test [5] was more than 100 µM each time.
On to `CC(=O)N1C/C(=C\c2ccc(N(C)C)cc2)C(=O)/C(=C/c2ccc(N(C)C)cc2)C1`, for which the TGI in test [6] is more than 100 µM; in test [1], more than 100 µM; in test [7], more than 100 µM; in test [2], 52.2 µM; in test [3], more than 100 µM; in test [8], more than 100 µM. The TGI in test [4] and in test [5] was more than 100 µM in each case.
Consider `COC(=O)c1cc(C)c(C)c2c1NC(=O)CNC2=O`, for which the TGI in test [6] is 91.6 µM; in test [1], more than 100 µM; in test [2], more than 100 µM; in test [3], more than 100 µM; in test [8] it was more than 100 µM; in test [4], more than 100 µM. The compound also showed a TGI in test [5] of more than 100 µM.
Consider `COC(C(O)c1ccc2c(c1)OCO2)P(=O)(c1ccccc1)c1ccccc1` (stereo not drawn), for which the TGI in test [6], in test [1], in test [7], in test [2], in test [8] and in test [4] was more than 100 µM in each case. This compound yielded a TGI in test [5] of more than 100 µM.
Consider `COc1ccc2nc3cc(Cl)ccc3c(NCCN)c2c1`, for which the GI50 in test [6] is 1.5 µM; in test [7], 4.75 µM; in test [3] it was 2.04 µM; in test [8] it was 1.44 µM. Moreover, the TGI in test [6] was 2.95 µM; in test [7], more than 100 µM; in test [3] it was 5.07 µM; in test [8], 5.4 µM.
With `Fc1ccc(C2SCc3nc4ccccc4n32)cc1Cl` (stereo not drawn), the TGI in test [6] was 43.5 µM; in test [1], more than 100 µM; in test [7], 52 µM; in test [2] it was 43.8 µM; in test [8], more than 100 µM; in test [4] it was 58.1 µM.
For `CCc1ccc(Nc2ccc([N+](=O)[O-])cc2[N+](=O)[O-])cc1`, the TGI was more than 100 µM in test [6]; more than 100 µM in test [1]; 99.8 µM in test [7]; more than 100 µM in test [2]; more than 100 µM in test [3]; more than 100 µM in test [4]. In test [5], this compound gave a TGI of more than 100 µM.
For `c1cc[c]([Pb]([c]2ccccc2)[c]2ccccc2)cc1`, the GI50 was 26.8 µM in test [6]; 16.4 µM in test [1]; 14.2 µM in test [2]; 14.5 µM in test [3]; 14.4 µM in test [8]; 3.34 µM in test [4]. Also, the GI50 in test [5] was 10 µM. For the same compound, the TGI amounted to 88.6 µM in test [6]; 49.6 µM in test [1]; 43.2 µM in test [2]; 90 µM in test [3]; 74.6 µM in test [8]; 15.8 µM in test [4]. In test [5], this compound showed a TGI of 32 µM.
As for `COc1ccc(/C(Cl)=C(\C=O)c2ccc([N+](=O)[O-])cc2)cc1`, the TGI in test [6] is 56.2 µM; in test [1], 29.9 µM; in test [7], 46.9 µM; in test [2], 32.2 µM; in test [3] it was 8 µM; in test [4], 50.6 µM. Besides, in test [5], the TGI was found to be 53.3 µM.
Regarding `COc1ncc(-c2ccc3ncnc(Nc4cccc(Cl)c4)c3c2)cc1NS(=O)(=O)CCN1CCOCC1`, the GI50 in test [7] was 0.659 µM; in test [3] it was 1.23 µM; in test [8], 0.653 µM; in test [4] it was 0.768 µM. Also, the TGI in test [7], in test [3], in test [8] and in test [4] was more than 100 µM in each case.
Take `N.N.O=C([O-])P(=O)([O-])[O-].[Na+].[Pt+4]`: the GI50 in test [6], in test [2], in test [3], in test [4] and in test [5] was more than 100 µM each time. Moreover, the TGI in test [6], in test [2], in test [3], in test [4] and in test [5] was more than 100 µM each time.
Take `C/C=C1/C(=C/c2[nH]c(/C=c3\[nH]/c(=C/C4=NC(=O)C(CC)=C4C)c(C)c3CCC(=O)O)c(CCC(=O)O)c2C)NC(=O)C1C` (stereo not drawn): the GI50 in test [6], in test [7], in test [2], in test [3], in test [4] and in test [5] was more than 150 mg/L throughout. Besides, the TGI in test [6], in test [7], in test [2], in test [3], in test [4] and in test [5] was more than 150 mg/L each time.
Turning to `Cc1nc2ccccc2c(=O)n1-c1ccccc1F`, the TGI in test [6], in test [1], in test [7], in test [2], in test [4] and in test [5] was more than 100 µM each time.
`COC1=CC2(C=CC1=O)c1cc(OC)c(OC)cc1CCN2C(=O)c1ccccc1` (stereo not drawn): the TGI in test [6], in test [1], in test [7], in test [2], in test [3] and in test [4] was more than 100 µM each time. This compound had a TGI in test [5] of more than 100 µM.
As for `CCCCCCC(=O)C/C(=N/NC(N)=S)C(=O)NC1C2CC3CC(C2)CC1C3` (stereo not drawn), the TGI in test [6], in test [1], in test [7], in test [3], in test [4] and in test [5] was more than 100 µM each time.
For `COc1ccc(CNc2nc3cc(C(F)(F)F)ccc3nc2C)cc1OC`, the TGI was 65.1 µM in test [6]; more than 100 µM in test [1]; more than 100 µM in test [2]; 97 µM in test [3]; more than 100 µM in test [4]; more than 100 µM in test [5].
`OC/C=C(\I)CCCOCOCc1ccccc1`: the TGI in test [6] was more than 100 µM; in test [1], more than 100 µM; in test [7], more than 100 µM; in test [2], more than 100 µM; in test [3], 47.5 µM; in test [4], more than 100 µM. This compound also had a TGI in test [5] of more than 100 µM.
Regarding `COc1cc2c(c(OC)c1)C1(CC(CC#N)C2)SCCS1` (stereo not drawn), the TGI in test [6], in test [7], in test [2], in test [3] and in test [5] was more than 100 µM in each case.
Regarding `CC1=N/C(=C\c2cccc([N+](=O)[O-])c2)C(=O)O1`, the TGI in test [6], in test [1], in test [2], in test [3], in test [4] and in test [5] was more than 100 µM each time.
In the case of `N#CCC(=O)NC1C2CC3CC(C2)CC1C3` (stereo not drawn), the TGI is more than 100 µM in test [6]; 33.1 µM in test [1]; 48.5 µM in test [7]; 32.3 µM in test [2]; more than 100 µM in test [3]; 32.6 µM in test [4]. Further, the TGI in test [5] stood at 59.1 µM.
For the compound `CN(C)C(c1ccccc1)C(O)c1ccccc1` (stereo not drawn), the TGI in test [6], in test [1], in test [7], in test [2], in test [3] and in test [4] was more than 100 µM each time. Further, the TGI in test [5] was more than 100 µM.
